In paper PMC10037499, “High-Throughput Screen Reveals the Structure–Activity Relationship of the Antimicrobial Lasso Peptide Ubonodin” (ACS Central Science, 2023):
Where a SMILES comes first, the peptide text is derived from it.

Legend:
[1] = test system: RNA polymerase (RNAP) in E. coli MC1061; assay: High-throughput growth-based screen with NGS (enrichment value) for RNA polymerase inhibition; assay type: cell-based; design: key to Experimental observation (enrichment observed in the screen): Dropout: Many variants inhibit RNAP so strongly that they cannot be detected by NGS after IPTG induction (referred to as dropout variants); details: for Experimental observation (enrichment observed in the screen): Table S4, variants whose MICs were tested; for Enrichment: case.csv of the DeepLasso code, screen stage and IPTG concentration not stated
Experimental: The single mutant library was analyzed by NGS at multiple stages of sample preparation (Figure 2A) to track its evolution throughout the screen. Specifically, the frequency of each possible aa variant was computed at each stage by summing up counts for each distinct translated sequence and dividing by the total number of counts for all variants (eq S1, SI Methods). Since cells expressing an RNAP-inhibiting ubonodin variant will have growth defects relative to cells with a nontoxic variant, RNAP-inhibiting ubonodin variants are expected to decrease in frequency throughout the screen.
First, the naïve library (digested PCR products) was sequenced. These digested PCR products were cloned into the pUboABC backbone and transformed into a recA^– cloning strain. This plasmid library was sequenced again to capture any changes upon transformation of the library into E. coli. The change between the naïve library and the cloning transformation library was minimal (Figure S6A). This plasmid library was transformed into the screening strain MC1061, and the plasmid from resulting colonies was also sequenced. The library in MC1061 was grown up en masse in liquid culture to mid log phase, and a portion of the culture was plated. These colonies were scraped, then the plasmid was isolated and sequenced. Finally, the liquid culture was induced with IPTG, after which a portion of the culture was plated and the plasmid was isolated and sequenced. It is key to note that all samples from liquid cultures were plated prior to sequencing to ensure that only viable cells were sequenced. […] The rationale for sequencing at these five different stages was the possibility that leaky expression of uboA would affect the frequency of active mutants prior to IPTG induction. Indeed, we observed that the frequency of some uboA mutants dropped as soon as they were transformed into the screening strain MC1061 while the frequency of other mutants climbed (Figure 2B).
The behavior of the point variants (i.e., variants with a single aa substitution) was examined by calculating their enrichment values, the base-2 logarithm of the ratio of the variant’s frequency at a specific step of the screen to the variant’s frequency in the cloning transformation library (eq S3, Figure S6). The most relevant enrichment value for ubonodin activity is the comparison between the post-IPTG library and the cloning transformation library (Figure 2A). […] Many variants inhibit RNAP so strongly that they cannot be detected by NGS after IPTG induction (referred to as dropout variants). […] Variants with a stop codon mutation and variants containing an aa substitution at Tyr9 or Tyr27 (positions conserved in MccJ25 and shown to be crucial for RNAP inhibition, see Figure S7)[26] have positive enrichment values (1.2–1.7), serving as quality control for the screen (Figure 3A). Strikingly, 63% of point variants decreased in frequency, indicating a high tolerance to aa substitution. […] The positions with active variants are Asn11 through Ser24 in the loop and Asp3, Ser5, and Ala7 in the ring.
The single mutant and double mutant libraries were transformed into E. coli MC1061. Colonies were resuspended in media and subcultured into a larger culture. Aliquots of the cultures were sampled prior to and after induction with 10 μM IPTG and 100 μM IPTG and plated. After 16 h of incubation, the colonies were resuspended in media and plasmids were miniprepped.
Samples were PCR amplified with barcoded primers and combined such that double mutant library samples were over-represented compared to single mutant library samples to provide sufficient coverage of the larger double mutant library. Samples were sequenced using an Illumina MiSeq Micro 300nt and an Illumina NovaSeq 6000 Sequencing System. Downstream analysis of the data was conducted with Python, MATLAB, and R.
V to reduce genomic DNA contamination. One fragment was amplified with Xho I For Lib and a […]

E. coli MC1061 = assay: Spot dilution assay of E. coli producing the ubonodin variant from pUboABC; assay type: cell-based; details: biological duplicates; for Inhibits Growth: variant in pUboABC backbone in E. coli MC1061, induction with 100 μM IPTG, ten-fold serial dilutions
Experimental: Cultures of E. coli MC1061 transformed with the appropriate plasmids were grown. Aliquots of the cultures were sampled prior to and after induction with 100 μM IPTG, and 10-fold serial dilutions were plated. […]
All cloning was conducted by PCR amplification (using Q5 polymerase), restriction digestion, ligation, (using T4 DNA ligase), and transformation into chemically competent E. coli XL1-Blue. All cloning with a pUboABC backbone was done by plating transformation mixt ures onto Lysogeny Broth (LB) plates supplemented with 100 μg/mL ampicillin and 0.2% w/v glucose, and colonies were inoculated into LB media supplemented with 100 μ g/mL ampicillin and 0.2% w/v glucose to suppress any leaky expression. Cloning for all other plasmid constructs was done by plating transformation mixtures onto Lysogeny Broth (LB) plates supplemented with 100 μ g/ m L ampicillin, and colonies were inoculated into LB media supplemented with 100 μ g/ m L ampicillin.
Plasmids were extracted using Qiagen QIAprep Spin Miniprep Kit and sequence verified using Sanger sequencing. All primer sequences are listed in Table S7, and all plasmid constructs are […]
pUboABC was cloned by amplifying pWC99 with pQE-80 NheI For and pAT8 Nco I Rev.
The amplicon was ligated into pWC99 digested with Nhe I and Nco I. pUboBC was cloned by digesting pUboABC with Nh e I and Nco I and ligating that fragment into pQE-80 digested with Nhe I and Nco I. pUboABC S5H I16P and pUboABCD S5H I16P were cloned with overlap PCR using pWC99 as the template. One fragment was amplified with pQE-80 EcoRI For and S5H I16P Rev v2 and the second fragment was amplified with S5H I16P For v2 and pQE-80 HindII I Rev. […]
All remaining plasmid constructs were cloned with overlap PCR. One fragment was amplified with Xho I For Lib and a mutagenic reverse primer and the second fragment was amplified with NheI Rev Lib and a mutagenic forward primer. The templates and mutagenic […]
The fragments were joined with a second round of PCR and amplified with XhoI For Lib and NheI Rev Lib. Amplicons were ligated into the appropriate plasmid backbone digested with Xho I and Nhe I-HF. The plasmid backbones […]
The appropriate plasmid was transformed into electrocompetent E. coli MC1061, plated onto LB plates supplemented with 100 μ g/ m L ampicillin and 0.2% w/v glucose, and incubated at 30 °C for 16 hours. Colonies were inoculated into LB media supplemented with 100 μ g/ m L ampicillin and 0.2% w/v glucose and grown at 37 °C for 16 hours. These cultures were sub-cultured to an OD600 of 0.02 in 50 mL of LB media supplemented with 100 μg/mL ampicillin in a 250 mL flask. Once the OD600 reached 0.3, a 1 mL aliquot was sampled immediately prior to inducing the cultures with 100 μM isopropyl β-D-1-thiogalactopyranoside (IPTG). The aliquot was washed with Phosphate-Buffered Saline (PBS) two times and ten-fold serial dilutions were spotted onto LB plates supplemented with 100 μ g/ m L ampicillin and 0.2% w/v glucose. For each following timepoint, a 1 mL sample of each culture was withdrawn, washed with PBS two times, and ten- […]
fold serial dilutions were spotted onto LB plates supplemented with 100 μ g/m L ampicillin and 0.2% w/v glucose. Plates were incubated for 16 hours at 37 °C before imaging. […]
250 mL flask. Ten-fold serial dilutions of the culture were plated onto LB plates supplemented with 100 μ g/ m L ampicillin and 0.2% w/v glucose. The cultures were then grown at 37 °C, and once the OD600 reached 0.3, a 1 mL sample of the culture was withdrawn immediately before the cultures were induced with 10 μM or 100 μM IPTG and returned to grow longer. […]
All plates were incubated at 37 °C for 16 hours, after which the number of colonies was counted. Three biological replicates of this assay were done.
Co-Culture of E. coli MC1061 pUboABC and E. coli MC1061 pUboBC pUboABC (0.9 ng) and pUboBC (0.1 ng) were transformed into electrocompetent E. coli MC1061 with a one- hour outgrowth at 37 °C in LB media supplemented with 0.2% w/v glucose. […]

B. cenocepacia AU0756 = test system: B. cenocepacia AU0756
Experimental: We proceeded to test the antimicrobial activity of the selected variants against two clinical isolates of the Bcc, B. cenocepacia AU0756 and B. cenocepacia AU24362, in broth microdilution assays. […] We revisited these measurements using broth microdilution assays following the Clinical & Laboratory Standards Institute (CLSI) standard.
Broth microdilution assays of the ubonodin variants were conducted using B. cenocepacia AU0756 and B. cenocepacia AU24362 with guidelines provided by the Clinical & Laboratory Standards Institute (CLSI).

Row | Compound | Experimental observation (enrichment observed in the screen) [1] | Time after induction at which the toxic effect was observed (E. coli MC1061; pUboABC backbone) [h] | Inhibits Growth (E. coli MC1061) | B. cenocepacia AU0756 MIC (B. cenocepacia AU0756) [µM] | Enrichment [1]
1 | CC[C@H](C)[C@@H]1NC(=O)[C@H](CO)NC(=O)CNC(=O)[C@H](CC(=O)O)NC(=O)CNC(=O)CNC(=O)CC[C@@H](C(=O)N[C@@H](Cc2ccc(O)cc2)C(=O)N[C@@H](Cc2ccccc2)C(=O)N[C@@H](CCSC)C(=O)N[C@@H](CCCNC(=N)N)C(=O)N2CCC[C@H]2C(=O)N[C@@H](CCSC)C(=O)N[C@@H](Cc2c[nH]cn2)C(=O)N[C@H](C(=O)N[C@@H](Cc2c[nH]cn2)C(=O)N[C@@H](CC(=O)O)C(=O)N[C@@H](Cc2c[nH]c3ccccc23)C(=O)N[C@@H](CCC(N)=O)C(=O)N[C@H](C(=O)N[C@@H](CCSC)C(=O)N[C@@H](CC(=O)O)C(=O)N[C@@H](CO)C(=O)NCC(=O)N[C@@H](Cc2ccc(O)cc2)C(=O)N[C@@H](Cc2ccc(O)cc2)C(=O)NCC(=O)O)[C@@H](C)CC)[C@@H](C)CC)NC(=O)CNC1=O [A7G N11M] (HELM PEPTIDE1{G.G.D.G.S.I.G.E.Y.F.M.R.P.M.H.I.H.D.W.Q.I.M.D.S.G.Y.Y.G}$PEPTIDE1,PEPTIDE1,1:R1-8:R3$$$V2.0) | Dropout | 6 | Yes | >8 | –
2 | CC[C@H](C)[C@H](NC(=O)[C@H](CCC(N)=O)NC(=O)[C@H](Cc1c[nH]c2ccccc12)NC(=O)[C@H](CC(=O)O)NC(=O)[C@H](Cc1c[nH]cn1)NC(=O)[C@H](C)NC(=O)[C@H](Cc1c[nH]cn1)NC(=O)[C@H](CCSC)NC(=O)[C@@H]1CCCN1C(=O)[C@H](CCCNC(=N)N)NC(=O)[C@H](CC(N)=O)NC(=O)[C@H](Cc1ccccc1)NC(=O)[C@H](Cc1ccc(O)cc1)NC(=O)[C@@H]1CCC(=O)NCC(=O)NCC(=O)N[C@@H](CC(=O)O)C(=O)NCC(=O)N[C@@H](CO)C(=O)N[C@@H]([C@@H](C)CC)C(=O)N2CCC[C@H]2C(=O)N1)C(=O)N[C@@H](CCSC)C(=O)N[C@@H](CC(=O)O)C(=O)N[C@@H](CO)C(=O)NCC(=O)N[C@@H](Cc1ccc(O)cc1)C(=O)N[C@@H](Cc1ccc(O)cc1)C(=O)NCC(=O)O [A7P I16A] (HELM PEPTIDE1{G.G.D.G.S.I.P.E.Y.F.N.R.P.M.H.A.H.D.W.Q.I.M.D.S.G.Y.Y.G}$PEPTIDE1,PEPTIDE1,1:R1-8:R3$$$V2.0) | Dropout | – | Yes | 4 to 8 | –
3 | CC[C@H](C)[C@H](NC(=O)[C@H](CCC(N)=O)NC(=O)[C@H](Cc1c[nH]c2ccccc12)NC(=O)[C@H](CC(=O)O)NC(=O)[C@H](Cc1c[nH]cn1)NC(=O)[C@@H](NC(=O)[C@H](Cc1c[nH]cn1)NC(=O)[C@H](CCSC)NC(=O)[C@@H]1CCCN1C(=O)[C@H](CCCNC(=N)N)NC(=O)[C@H](CC(N)=O)NC(=O)[C@H](Cc1ccccc1)NC(=O)[C@H](Cc1ccc(O)cc1)NC(=O)[C@@H]1CCC(=O)NCC(=O)NCC(=O)N[C@@H](CC(=O)O)C(=O)NCC(=O)N[C@@H](CO)C(=O)N[C@@H]([C@@H](C)CC)C(=O)N2CCC[C@H]2C(=O)N1)[C@@H](C)CC)C(=O)N[C@@H](CCSC)C(=O)N[C@@H](CC(=O)O)C(=O)N[C@@H](CO)C(=O)NCC(=O)N[C@@H](Cc1ccc(O)cc1)C(=O)N[C@@H](Cc1ccc(O)cc1)C(=O)NCC(=O)O [A7P] (HELM PEPTIDE1{G.G.D.G.S.I.P.E.Y.F.N.R.P.M.H.I.H.D.W.Q.I.M.D.S.G.Y.Y.G}$PEPTIDE1,PEPTIDE1,1:R1-8:R3$$$V2.0; C-terminus assumed) | -3.4 | – | Yes | 2 | –
4 | GGDGSI*EYFNRPMVIHDWQIMDSGMYG | – | – | – | – | 4.338
5 | GGDGSIAEYFNRPMHIHEWQIM*SGYYG | – | – | – | – | 4.458
